Like-named read-outs stand apart in the source and are kept apart here.
Assays:
[1] = system: THP-1 Lucia ISG cells (IRF-inducible Lucia luciferase reporter); assay: Interferon-β induction: THP-1 ISG reporter cell line; assay type: cell-based; conditions: THP1-Lucia ISG, 24 hours incubation, read-out: THP-1 Lucia ISG Cells IFN-β EC50
Description: Interferon-β Induction: THP-1 ISG Reporter Cell Line
THP-1 Lucia™ ISG cells (InvivoGen) express the secreted luciferase “Lucia” reporter gene under the control of an IRF-inducible composite promotor comprised of five interferon response elements. THP-1 Lucia™ ISG cells were grown in RPMI media plus 2 mM L-glutamine, 10% fetal bovine serum, and 0.5% Pen-Strep. Hygromycin B and Zeocin were present to maintain stable transfection. 10^4 cells were seeded in 96-well plates and incubated overnight 37° C., 5% CO2. 50 μL of serial diluted compounds in media (final 0.5% DMSO) was and incubated for an additional 24 hours. After incubation, the plates were centrifuged at 2000 rpm for 10 min. 50 μl of cell culture supernatant of each well was transferred to a white, opaque 96-well plate. One pouch of QUANTI-Luc™ (InvivoGen) powder was prepared in 25 mL of endotoxin-free water and 100 μL of prepared warm QUANTI-Luc solution were added to each well containing the supernatant. The luminescence signal was measured using a Perkin-Elmer Envision microplate reader. Data were normalized to “% effect” with a positive control STING agonist that was known to maximize the luciferase signal and the negative control DMSO.

[2] = system: phosphorylation of IRF3 in THP-1 cells (STING activation); assay: Phosphorylation of IRF3: THP-1 cell ELISA; assay type: cell-based; conditions: Homo sapiens, 3 hours incubation, read-out: THP-1 CELL P-IRF3 EC50
Description: Phosphorylation of IRF3: THP-1 cell ELISA
STING activation results in recruitment of TBK1 and phosphorylation of IRF3 transcription factor before induction of type I interferons. THP-1 cells (InvivoGen) were grown in RPMI media plus 2 mM L-glutamine, 10% fetal bovine serum, and 0.5% Pen-Strep. 10^4 cells were seeded in 96-well plates and incubated overnight […]. Compounds serial diluted compounds in media (final 0.5% DMSO) were added to the cells and incubated for an additional 3 hours. After incubation, the plates were centrifuged at 2000 rpm for 5 min. The cells were then lysed in 100 μl RIPA buffer and vortexed for 30 minutes at room temperature. 25 μl of lysate was then transferred to clear polystyrene High Bind plates that had been previously coated with mouse anti-human IRF-3 capture antibody (BD Pharmigen), and allowed to incubate at 4° C. for 16 hours. The plates were then washed and incubated with rabbit anti-phospho-IRF3 detection antibody (Cell Signaling Technologies) for 1.5 hours at room temperature. Finally, an HRP-linked secondary antibody (Cell Signaling Technologies) was added for 30 min before the Glo Substrate Reagent (R&D Systems) was used generate the luminescent signal. The signal was measured using a Perkin-Elmer Envision microplate reader. Data were normalized to “% effect” with a positive control STING agonist that was known to maximize the phosphorylated IRF3 signal and the negative control was DMSO.

R232-STING [3] = target: T1, R232-STING (Homo sapiens (Human), UniProt Q86WV6, H232R); assay: biochemical
R232-STING [4] = target: T1, R232-STING; conditions: read-out: R232-STING SPA-IC50 Ki; STING residues 155-341, 100 nM 3H-cGAMP; KI from IC50 with Cheng-Prusoff equation

T1 sequence (Q86WV6 155-341 H232R): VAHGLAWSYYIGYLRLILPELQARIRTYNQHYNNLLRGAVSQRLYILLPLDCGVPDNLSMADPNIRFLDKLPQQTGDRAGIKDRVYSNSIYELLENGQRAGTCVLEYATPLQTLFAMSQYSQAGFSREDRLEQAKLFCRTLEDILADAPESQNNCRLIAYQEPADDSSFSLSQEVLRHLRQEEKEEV

Row | EC50 [1] | EC50 [2] | Ki (R232-STING [4]) | Compound | Ki (R232-STING [3])
1 | 1250 nM | 1230 nM | – | CCn1nc(C)cc1-c1cn(CC(C)O)c(-c2nc(C(N)=O)cc3c2cnn3C)n1 (racemic) [AIP05, (Rac)-4-[4-(1-ethyl-3-methyl-1H-pyrazol-5-yl)-1-(2-hydroxypropyl)-1H-imidazol-2-yl]-1-methyl-1H-pyrazolo[4,3-c]pyridine-6-carboxamide] | 27.1 nM
2 | 1830 nM | 1350 nM | 46.6 nM | Cc1cc(-c2cn(C)c(-c3nc(C(N)=O)cc4c3cnn4C)n2)n(CCCC#N)n1 [AIF15, 4-{4-[1-(3-cyanopropyl)-3-methyl-1H-pyrazol-5-yl]-1-methyl-1H-imidazol-2-yl}-1-methyl-1H-pyrazolo[4,3-c]pyridine-6-carboxamide] | –
3 | 1320 nM | 1370 nM | 28.2 nM | Cc1cc(-c2cn(C)c(-c3nc(C(N)=O)cc4c3cnn4C)n2)n(CCCC(F)F)n1 [AIF14, 4-{4-[1-(4,4-difluorobutyl)-3-methyl-1H-pyrazol-5-yl]-1-methyl-1H-imidazol-2-yl}-1-methyl-1H-pyrazolo[4,3-c]pyridine-6-carboxamide] | –

Row | Compound | EC50 [1] | EC50 [2] | Ki (R232-STING [4]) | Ki (R232-STING [3])
4 | Cc1cc(-c2cn(C)c(-c3nc(C(N)=O)cc4c3ccn4C)n2)n(CCCO)n1 [AIJ02, 4-{4-[1-(3-hydroxypropyl)-3-methyl-1H-pyrazol-5-yl]-1-methyl-1H-imidazol-2-yl}-1-methyl-1H-pyrrolo[3,2-c]pyridine-6-carboxamide] | 1920 nM | 1510 nM | – | 39.7 nM
